In patent publication US20210236532A1, “THERAPEUTIC AGENT FOR FRONTOTEMPORAL LOBAR DEGENERATION, METHOD FOR SCREENING THERAPEUTIC AGENT FOR FRONTOTEMPORAL LOBAR DEGENERATION AND METHOD FOR TREATING FRONTOTEMPORAL LOBAR DEGENERATION” (National University Corporation Tokyo Medical and Dental …, priority 2018, published 2021):

Tests used:
Format in all cases: in vivo
[1] = system: PGRN-KI mice; assay: Fear conditioning experiment (freezing reaction)
Procedure: (§1) The following two types of behavioral experiments (fear conditioning experiment and Morris water maze test) were performed, and an impaired cognitive response was found in the PGRN-KI mice of 12 weeks or older. Such an impaired response is a symptom similarly seen in frontotemporal lobar degeneration. It is to be noted that all behavioral tests are carried out according to the method indicated by Ito H. et al. (Mol Psychiatry. 2015 April; 20 (4): 459-471).
A fear conditioning experiment was performed with the PGRN-KI mice and control mice (C57BL/6J mice without the knock-in). Specifically, the mice received electrical stimulation (0.4 mA, 2 s) on their paws along with sound stimulation (65 dB white noise, 30 s). Twenty-four hours later, the frequency of the freezing reaction in the mice was measured when the mice were subjected to the sound stimulation without the electrical stimulation in the same chamber. […] This means that the cognitive response of the PGRN-KI mice was impaired as compared with the control mice. […]

[2] = system: PGRN-KI mice; assay: Morris water maze test
Procedure: as §1
A Morris water maze test was performed with the PGRN-KI mice and control mice (C57BL/6J mice without the knock-in). Specifically, the mice received a 60-second trial four times per day for 5 days, and the time period taken for each mouse to reach the platform was measured. […] This means that the cognitive response of the PGRN-KI mice was impaired as compared with the control mice.
(§2) The knockdown of each gene was performed according to the following procedures: Lentiviral particles (2×10^5 titer units/100 μl) containing scrambled shRNA (sc-108080, manufactured by Santa Cruz Biotechnology), Tau-shRNA (sc-430402-V, manufactured by Santa Cruz Biotechnology), B-Raf shRNA (sc-63294-V, manufactured by Santa Cruz Biotechnology), or Tyro3-siRNA (iV037848, manufactured by ABM) were diluted to 1:4 with ACSF buffer (NaCl 125 mM; KCl 2.5 mM; NaH2PO4 1.25 mM; MgCl2 1 mM; CaCl2) 1 mM; NaHCO326 mM; and glucose 25 mM). […]

[3] = system: PGRN-KI mice; assay: Morphological analysis of spines (two-photon excitation microscope, IMARIS)
Procedure: as §2, with “mM). Further, a plasmid vector (10 μg) containing scrambled shRNA (TG501653, manufactured by OriGene), PKCα-shRNA (TG501653, manufactured by OriGene), or Gas6-shRNA (sc-35451-SH, manufactured by Santa Cruz Biotechnology) was dissolved in 100 μl of in vivo-jetPEI (201-10G, manufactured by Polyplus-transfection).” for “mM).”
Images of dendrites from the mice (at 12 weeks of age) knocked down for each gene were acquired using a two-photon excitation microscope. In addition, the number of spines was measured using “IMARIS software” (IMARIS 7.2.2, manufactured by Bitplane GmbH). […]
Images of dendrites from the mice (at 12 weeks of age) in each administered group were acquired using a two-photon excitation microscope. In addition, the number of spines was measured using “IMARIS software” (IMARIS 7.2.2, manufactured by Bitplane GmbH). […]

[4] = PGRN-KI mice, treated vs untreated/unknocked-down PGRN-KI mice
[5] = control mice (C57BL/6J without the knock-in), with or without agent

Cn1c2ccccc2c2c3c(c4c5ccccc5n(CCC#N)c4c21)CNC3=O [Go6976]
cognitive response in the fear conditioning experiment [1, 4]: significantly improved
cognitive response in the fear conditioning experiment [1, 5]: no change
cognitive response in the Morris water maze test [2, 4]: significantly improved
cognitive response in the Morris water maze test [2, 5]: no change
number of spines ([3]; PGRN-KI mice at 12 weeks of age, treated vs untreated/unknocked-down PGRN-KI mice): markedly higher number of spines
number of spines ([3]; control mice (C57BL/6J without the knock-in) at 12 weeks of age, with or without agent): no change
